Columns and labels:
LysC; aspartokinase III = target: T1, LysC; aspartokinase III (Escherichia coli, UniProt P08660); experiment: in vitro reaction, product confirmed by LC-MS; format: biochemical; conditions: product trapped with L-Cys as β-aspartyl cysteine
T1 sequence (P08660 2-449): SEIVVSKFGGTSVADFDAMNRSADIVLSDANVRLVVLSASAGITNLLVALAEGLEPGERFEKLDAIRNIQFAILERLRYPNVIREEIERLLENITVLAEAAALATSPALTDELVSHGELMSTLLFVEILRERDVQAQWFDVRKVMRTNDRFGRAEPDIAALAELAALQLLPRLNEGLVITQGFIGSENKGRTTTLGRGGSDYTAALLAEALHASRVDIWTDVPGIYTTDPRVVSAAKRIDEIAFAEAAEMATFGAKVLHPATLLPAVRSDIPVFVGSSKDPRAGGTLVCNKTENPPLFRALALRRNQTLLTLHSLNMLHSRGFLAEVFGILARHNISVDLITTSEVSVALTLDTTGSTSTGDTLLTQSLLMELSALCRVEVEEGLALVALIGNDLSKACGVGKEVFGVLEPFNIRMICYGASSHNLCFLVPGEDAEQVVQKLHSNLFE

[1] = target: T2, ProA(wt); γ-glutamyl phosphate reductase (Escherichia coli, UniProt P07004); experiment: NADPH oxidation in coupled assay with ProB; format: biochemical; conditions: γ-glutamyl phosphate formed in situ by ProB from L-Glu
T2 sequence (P07004 1-417): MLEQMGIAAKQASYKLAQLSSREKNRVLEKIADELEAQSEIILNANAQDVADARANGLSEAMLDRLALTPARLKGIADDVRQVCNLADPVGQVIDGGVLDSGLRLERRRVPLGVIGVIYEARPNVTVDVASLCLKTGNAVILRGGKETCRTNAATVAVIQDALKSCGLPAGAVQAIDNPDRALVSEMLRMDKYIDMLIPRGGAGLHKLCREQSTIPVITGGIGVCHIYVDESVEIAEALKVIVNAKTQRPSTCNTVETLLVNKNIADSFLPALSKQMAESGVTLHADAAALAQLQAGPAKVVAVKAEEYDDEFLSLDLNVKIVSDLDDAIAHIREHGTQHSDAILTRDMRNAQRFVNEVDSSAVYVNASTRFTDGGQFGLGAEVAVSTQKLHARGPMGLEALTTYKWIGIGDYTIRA

**Q.** `N[C@@H](CC(=O)O)C(=O)O` [L-Asp] was tested. Which “in vitro reaction, product confirmed by LC-MS” value (LysC; aspartokinase III) did it give?
**A.** Its value is “LysC from E. coli was used to convert L-Asp to β-aspartyl phosphate”.

**Q.** For `NC(=O)C1=CN([C@@H]2O[C@H](COP(=O)(O)OP(=O)(O)OC[C@H]3O[C@@H](n4cnc5c(N)ncnc54)[C@H](OP(=O)(O)O)[C@@H]3O)[C@@H](O)[C@H]2O)C=CC1` [NADPH], which “NADPH oxidation in coupled assay with ProB” value [1] is on record?
**A.** Its value is “A coupled in vitro assay, which measures NADPH oxidation by ProA(wt)”.
